Values quoted from earlier work in patent US6682694B2, “Uncomplexed cyclodextrin solutions for odor control on inanimate surfaces” (The Procter & Gamble Company, priority 1994, dated 2004).

Conditions: for water solubility: in water

SMILES	water solubility	solubility in water
O=[N+]([O-])C1(Br)COCOC1 [Bronidox L, 5-bromo-5-nitro-1,3-dioxane]	about 0.46%	–
CC1(C)C(=O)N(CO)C(=O)N1CO [DMDM hydantoin, 1,3-bis(hydroxymethyl)-5,5-dimethyl-2,4-imidazolidinedione]	more than 50%	–
ClC=CC[N+]12CN3CN(CN(C3)C1)C2.[Cl-] [Dowicil 200, 1-(3-Chlorallyl)-3,5,7-triaza-1-azoniaadamantane chloride]	–	freely soluble in water
CC(C)(O)C(Cl)(Cl)Cl [chlorobutanol, 1,1,1-Trichloro-2-methylpropan-2-ol, reference compound]	about 0.8%	–
[Na+].[O-][n+]1ccccc1[S-] [sodium pyrithione]	about 50%	–

Further lines, with some results ahead:

water solubility	SMILES	solubility in water
about 2.67%	OCCOc1ccccc1 [2-phenoxyethanol]	–
about 2%	OCCc1ccccc1 [2-phenylethanol]	–
about 25%	O=[N+]([O-])C(Br)(CO)CO [Bronopol, 2-bromo-2-nitropropane-1,3-diol]	–
about 4%	OCc1ccccc1 [benzyl alcohol]	–
about 1.8%	[H]/N=C(\N/C(=N/[H])NCCCCCCNC(=N)NC(=N)Nc1ccc(Cl)cc1)Nc1ccc(Cl)cc1 [chlorhexidine diacetate, 1,1′-hexamethylene bis(5-(p-chlorophenyl)biguanide), reference compound]	–
about 70%	[H]/N=C(\N/C(=N/[H])NCCCCCCNC(=N)NC(=N)Nc1ccc(Cl)cc1)Nc1ccc(Cl)cc1 [chlorhexidine digluconate, 1,1′-hexamethylene bis(5-(p-chlorophenyl)biguanide), reference compound]	–
